These results are taken from US12319915B2, “Cytotoxic fluoropyrimidine polymers and methods of use thereof” (Wake Forest University Health Sciences, priority 2018, dated 2025).

One data set concerns HCT-116. Briefly: NCI60 cell line screen, HCT-116. It is filed as cell-based. The note with it: Homo sapiens; HCT-116, NCI 60 cell line screen.
The subject of a further data set is SW620. Put plainly: NCI60 cell line screen, SW620. It is filed as cell-based. The note with it: Homo sapiens, SW-620; SW620, NCI 60 cell line screen.
Data set [1] has as its target T1, thymidylate synthase (TS) (Homo sapiens, UniProt P04818).
T1 construct: Cell lysate aliquots (400 μg of protein) were added to the reaction buffer; endogenous in cells; host or cells: HCT116 human colorectal cancer cells
Put plainly: Thymidylate synthase activity in lysates of treated HCT116 cells. In kind it is cell-based. The following applies: HCT-116 cells, 100 nM. The procedure: Thymidylate Synthase Activity. TS activity assays were performed using well-established procedures. HCT116 cells were plated at a density of 1.0-1.5×10^6 cells in […] plates. Cells were grown overnight in DMEM media with 10% FBS to allow the cells to adhere and begin to grow. Drugs were then added to the medium and the cells were incubated for the indicated time (24 h or 48 h). Cells were then harvested in 25 mM Tris-HCl, pH 7.4 with Complete Protease Inhibitor Cocktail present (as per instructed, Roche), put through two freeze/thaw cycles, and vigorously vortexed. The lysates were centrifuged at 10,000×g for 10 min at 4° C. The supernatants were assayed for protein concentration and TS catalytic activity. TS catalytic assays were performed in a final volume of 200 μL containing freshly prepared 75 μM 5,10 methylene tetrahydrofolate in 0.5 M NaOH (Schircks Laboratories, Switzerland), 10 μM dUMP, 200,000 dpm of 3H-dUMP (Moravek Biochemicals), 100 μM 2-mercaptoethanol, and 25 mM KH2PO4, pH 7.4. Cell lysate aliquots (400 μg of protein) were added to the reaction buffer and lysis buffer was used to adjust the final volume. The reaction mixture was incubated at 37° C. for 30 min, then stopped by addition of 100 μL of ice-cold, 20% TCA. Stopped reactions were maintained 5 min on ice. […] Reactions were then centrifuged, and aliquots of the supernatant were read by scintillation counting.

The next data set relates to HCT-116 flank tumors. Put plainly: HCT-116 flank xenograft model. The following applies: 5-FU 70 mg/kg i.p. 2× per week every other week.
The test system of the next data set is KM-12. Briefly: NCI60 cell line screen, KM-12. In kind it is cell-based. The note with it: Homo sapiens, KM12; KM-12, NCI 60 cell line screen.
The subject of the next data set is HCT-116 cells. Briefly: cells. The following applies: Homo sapiens, HCT-116, 96 h, read-out: potency (cytotoxicity) to HCT-116 cells.
The subject of another data set is HCC2998. Briefly: NCI60 cell line screen, HCC2998. In kind it is cell-based. The following applies: Homo sapiens, HCC 2998; HCC2998, NCI 60 cell line screen.
Another data set has as its system HT-29. Put plainly: NCI60 cell line screen, HT-29. It is filed as cell-based. The following applies: Homo sapiens; HT-29, NCI 60 cell line screen.
The next data set concerns COLO205. Briefly: NCI60 cell line screen, COLO205. It is filed as cell-based. The following applies: Homo sapiens, COLO 205; COLO205, NCI 60 cell line screen.
The next data set relates to HCT-15. Briefly: NCI60 cell line screen, HCT-15. In kind it is cell-based. The following applies: Homo sapiens; HCT-15, NCI 60 cell line screen.
The conditions of data set [2]: cited from earlier work.
Data set [3] relates to HCT-116-luc orthotopic xenografts.
Source text: Orthotopic Colorectal Model. Protocol was followed per Tseng et al.'s previous study (Tseng W. et al., Vis Exp, 2007 (10): p. 484). A xenograft tumor was formed as described above using HCT116-luc cells. Once the tumor reached a size large enough for transplantation, mice were euthanized and tumor tissue was removed. The tumor was divided into 2-3 mm pieces and placed in PBS on ice. BALB/c mice were put under anesthesia, and the abdomen was prepped with a betadine solution. A laparotomy was performed in the abdomen and the cecum was exposed. The cecal wall was slightly damaged to allow cell invasion. A piece of tumor tissue was then attached to the outside of the cecum by a figure-8 stitch using a 9-O-nylon suture. The cecum is returned to the cavity and the abdomen wall is closed up using 6-0 coated vycryl sutures. A rectal thermometer monitored the internal temperature of the mice during surgery. Mouse recovery was monitored closely and mice were given Meloxicam every day for 3 days to alleviate pain along with normal saline to keep the mice hydrated. Tumor volume and cell progression was monitored using an IVIS live imaging system for evaluated total proton flux. […] CF10 was dosed 2×/week every week at 360 mg/kg (n=8 study 1; n=2 in study 2). All drugs, or vehicle (0.9% saline; n=8 study 1; n=6 study 2) were administered by i.p. injection in 200 μL volume.
Animal Imaging. Pierce D-Luciferin (Thermo Scientific) was injected subcutaneous using a 28-gauge needle 15 minutes before imaging. Mice were placed in an anesthesia chamber with 1.5% isoflurane and then transferred to the IVIS stage under 2% isoflurane using a nose cone placing the mice on their back. IVIS Lumina LT Series III machine was used for all mouse images. All images were analyzed at the end of the time experiment using the same Living Image software. A region of interest was placed on the mouse′ midsection and determined the total flux in that region. The region of interest remained identical for each mouse. Graphs were plotted as total flux per mouse for each week.
Statistical Analysis. All statistical analyses were conducted using SAS 9.4 using a mixed models approach. Baseline flux from IVIS imaging measurement, group, time and group-by-time interaction were included as fixed effects. The animals were included as random effects to account for the within animal correlation. Survival differences among treatment groups were determined using a log-rank test.
Histology Analysis. Tissues from select mice from all treatment groups were removed from animals after undergoing euthanasia by intra-cardiac administration of KCl solution. In some instances, mice were injected with luciferin ˜20 min prior to euthanasia and tissue extraction to permit IVIS imaging of extracted tissue. Tumors were weighed after removal and in instances where there was suspicion of possible metastases to liver, lung, or other organs tissue from these organs was removed and if luciferin was administered prior to euthanasia, these tissues were imaged using the IVIS system. All tissues were fixed in 10% neutral buffered formalin for 24 h followed by transfer to 70% ethanol. Following routine processing in xylene, tissues were sectioned at 4 μm and stained with Hematoxylin and Eosin and evaluated by light microscopy by a veterinary pathologist.

T1 sequence (P04818 2-313 limits assumed): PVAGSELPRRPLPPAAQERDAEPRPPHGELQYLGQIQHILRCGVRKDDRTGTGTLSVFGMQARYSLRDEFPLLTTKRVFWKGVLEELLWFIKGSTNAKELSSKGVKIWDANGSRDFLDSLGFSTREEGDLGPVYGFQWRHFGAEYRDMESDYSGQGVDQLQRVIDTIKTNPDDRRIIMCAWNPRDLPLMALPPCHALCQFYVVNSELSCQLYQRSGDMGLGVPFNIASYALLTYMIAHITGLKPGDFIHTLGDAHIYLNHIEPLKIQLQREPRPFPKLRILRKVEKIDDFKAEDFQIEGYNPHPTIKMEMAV
Source text for HCT-116 cells: Cell Lines and Drugs. HCT-116 human CRC cells were supplied by GRCF Biorepository & Cell Center (Johns Hopkins University). HCT116 cells were infected with UBC-GFPLuc-LV by the Cell and Viral Vector Laboratory at Wake Forest School of Medicine to generate luciferase-expressing HCT116-luc cells. These cells also express GFP. All human CRC cell lines were maintained in Dulbecco's Modified Eagle Medium (DMEM; Lonza, Switzerland) supplemented with 10% fetal bovine serum (FBS; Sigma, St. Louis, Missouri). Cell lines were cultured in conditions of 37° C. and 5% CO2 and were confirmed negative for mycoplasma.
Cell Culture. Cells were seeded in 96-well plates at the appropriate density in 200 μL medium and incubated for 37° C. overnight for cell attachment. […] Compounds were serially-diluted in either water or DMSO (final DMSO percentage<1%) to a stock concentration, and an equal amount of drug was added to the exponentially growing cells for each tested concentration. All drugs were filtered in 0.22 μm filter before use.
Cell Viability. CellTiter-Glo (Promega, Wisconsin) was used to determine cell viability. Assays were performed according to the manufacturer's instructions. Cell viability was normalized and calculated as a relative percentage of the averaged vehicle control.
Procedure for HCT-116 flank tumors: Animal Model. […] All of the animal experiments were performed on six-to-eight-week-old female BALB/c mice.
Xenograft Model. HCT116 cells (3×10^6 cells) were suspended in ice-cold PBS and mixed 1:1 with Matrigel and subcutaneously injected into the flanks of Balb/nude mice. Tumor growth and mice health were monitored daily until the tumor reached a volume of 100-200 mm^3 (about two weeks). Tumor measurements were taken using electronic digital calipers twice a week, along with mouse weight. Tumor volume (V) was calculated as V=π/6 (L×W^2). 5-FU (70 mg/kg 2×/wk every other week) or CF10 (300 mg/kg) were dosed by intraperitoneal (i.p.) injection using a 28-gauge needle. Mice requiring removal from study due to large tumor burden or weight-loss were euthanized in accord with AVMA guidelines.

As usually defined, the GI50 is the concentration that inhibits growth by half. A lower GI50 goes with greater sensitivity of the cells. As a reminder, the half-life is how long it takes for the measured level to halve. `O=c1[nH]cc(F)c(=O)[nH]1` [5-FU, 5-fluorouracil]: the GI50 in the data set with HCT-116 was found to be 4.07 µM; with SW620, 28.2 µM; in the data set on KM-12, 8.71 µM; in the data set with HCC2998, 1.51 µM; with HT-29 it was 6.76 µM; in the data set with COLO205 it was 6.92 µM. Also, in the data set with HCT-15, growth was halved (GI50) at 5.62 µM. Moreover, the TS enzymatic activity result in data set [1] (24 h) was “reduced TS activity”; in data set [1] (48 h) it was approximately 75 % control values. Also, the “day post-treatment by which all mice required euthanasia” value with HCT-116 flank tumors was not above 16 days. Also, the weight loss entry with HCT-116 flank tumors (CF10 300 mg/kg i.p. 2×/week) was “greater weight loss than mice in the other treatment groups”. Also, the IC50 with HCT-116 cells was 21 µM. In addition, the half-life in data set [2] is approximately 15 min. The primary tumor weight in [3] (5-FU average at week 5, CF10 one mouse at week 8) is on record as 1.0 g. Besides, in [3] (autopsy at week 5), the “mice with putative metastatic tissue” value is 2/4. In addition, in [3] (mouse, in vivo, ip, 100 mg/kg), the tolerability result is listed as “toxic”. In addition, the effect on survival result in data set [3] (orthotopic HCT-116-luc) is on record as “no significant effect on survival”. In data set [3] (orthotopic HCT-116-luc, i.p.), this molecule came in with a median survival of 31 days. Moreover, in [3] (orthotopic HCT-116-luc, i.p.), the “tumor growth (rate of change in flux, IVIS)” value was “decrease tumor growth relative to control”.
